Data: US20080090805A1, “CB-1 MODULATING COMPOUNDS AND THEIR USE” (ACADIA PHARMACEUTICALS INC., priority 2005, published 2008)
Where two headings read alike, the source gives them in different places.

Target: CB1 (mutant) (Homo sapiens, UniProt P21554)
Assay: R-SAT functional receptor assay, CB1 (mutant, truncated after amino acid 417)
Format: cell-based
Conditions: R-SAT CB1; for IC50: receptor form (mutant or wild-type) not stated; for Emax: read-out: % Inhibition
[1] = Appendix A, read-out: pIC50 (converted)
[2] = Appendix A, receptor form not stated, relative to SR141716 (100%)

Chain of CB1 (mutant) (P21554 1-417, change not shown): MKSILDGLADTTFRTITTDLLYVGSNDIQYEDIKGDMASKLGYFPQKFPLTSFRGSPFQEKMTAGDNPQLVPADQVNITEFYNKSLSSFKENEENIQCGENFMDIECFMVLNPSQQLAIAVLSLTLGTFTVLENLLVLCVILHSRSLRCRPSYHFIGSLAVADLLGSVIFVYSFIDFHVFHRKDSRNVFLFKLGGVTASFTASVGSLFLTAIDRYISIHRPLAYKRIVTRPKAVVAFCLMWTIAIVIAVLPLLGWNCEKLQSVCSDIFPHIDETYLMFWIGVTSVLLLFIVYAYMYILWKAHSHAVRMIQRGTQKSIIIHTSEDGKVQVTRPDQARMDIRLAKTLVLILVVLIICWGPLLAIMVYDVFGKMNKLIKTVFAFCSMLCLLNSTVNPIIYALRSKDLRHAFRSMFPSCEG

| SMILES | IC50 [1] [nM] | Emax [2] [%] | IC50 (pIC50, Appendix A) [nM] | % Inhibition [2] [%] |
| --- | --- | --- | --- | --- |
| O=C(c1ccc2c(c1)N=C(c1cccc(Cl)c1)c1ccccc1S2)N1CCCCC1 | 39.8 | 80 | – | – |
| CCCC1=Nc2cc(C(=O)NCCc3ccc(Cl)cc3)ccc2Sc2ccccc21 [drawing 1003] | – | 110 | 25.1 | – |
| O=C(NCCc1ccccn1)c1ccc2c(c1)N=C(c1cccc(Cl)c1)c1ccccc1S2 [drawing 999] | 25.1 | – | – | 91 |
| Cc1csc(CNC(=O)c2ccc3c(c2)N=C(c2ccc(Cl)s2)c2ccccc2S3)c1 [drawing 655] | 6.31 | 94 | – | – |
| Cc1ccsc1C1=Nc2cc(C(=O)NCCCC(F)(F)F)ccc2Sc2ccccc21 [drawing 599] | 3.98 | 111 | – | – |
| CC(C)CCNC(=O)c1ccc2c(c1)N=C(c1ccc(F)cc1)c1ccccc1S2 [drawing 771] | – | 107 | 10 | – |
| CC(C)NC(=O)c1ccc2c(c1)N=C(c1ccc(F)cc1)c1ccccc1S2 [drawing 1079] | 31.6 | 97 | – | – |
| COc1ccc(C2=Nc3cc(C(=O)NN4[C@H](C)CCC[C@@H]4C)ccc3Sc3ccccc32)cc1 [drawing 730] | 79.4 | 99 | – | – |
| O=C(NC1CCCCC1)c1ccc2c(c1)N=C(c1ccccc1F)c1ccccc1S2 [drawing 740] | 79.4 | 109 | – | – |
| CC(C)CNC(=O)c1ccc2c(c1)N=C(c1ccccc1F)c1ccccc1S2 [drawing 627] | 5.01 | 118 | – | – |
| O=C(NCc1cccc(Cl)c1)c1ccc2c(c1)N=C(N1CCCCC1)c1ccccc1S2(=O)=O [drawing 939] | – | 91 | 20 | – |
| CCCCNC(=O)c1ccc2c(c1)N=C(c1ccccc1Cl)c1ccccc1S2 | – | 89 | – | – |
| CC(CNC(=O)c1ccc2c(c1)N=C(c1ccccc1F)c1ccccc1S2)c1ccccc1 (centres unmarked) [drawing 909] | 15.8 | 110 | – | – |
| CCCC1=Nc2cc(C(=O)NCCCOC(C)C)ccc2Sc2ccccc21 | 63.1 | 117 | – | – |
| O=C(NN1CCCCC1)c1ccc2c(c1)N=C(c1ccc(F)cn1)c1ccccc1S2 [drawing 660] | 63.1 | 92 | – | – |
| O=C(NN1CCCCC1)c1ccc2c(c1)N=C(c1ccc(Cl)s1)c1ccccc1S2 [drawing 823] | – | 97 | 12.6 | – |
| CCONC(=O)c1ccc2c(c1)N=C(c1cccc(F)c1)c1ccccc1S2 | 200 | 81 | – | – |
| CCCC1=Nc2cc(C(=O)NCCOC)ccc2Sc2ccccc21 | 200 | 107 | – | – |
| Cc1ccsc1C1=Nc2cc(C(=O)NCC(C)C)ccc2Sc2ccccc21 [drawing 757] | 10 | 88 | – | – |
| O=C(NN1CCCC1)c1ccc2c(c1)N=C(c1cccc(Cl)c1)c1ccccc1S2 | – | 85 | – | – |
| CCCCNC(=O)c1ccc2c(c1)N=C(c1ccccn1)c1ccccc1S2 [drawing 907] | 15.8 | 100 | – | – |
| Cc1ccc(CNC(=O)c2ccc3c(c2)N=C(c2cccc(Cl)c2)c2ccccc2S3)o1 [drawing 623] | 5.01 | 74 | – | – |
| O=C(NC1CCCC1)c1ccc2c(c1)N=C(c1ccccc1F)c1ccccc1S2 | 398 | 79 | – | – |
| CCCCN(C)C(=O)c1ccc2c(c1)N=C(c1ccc(OC)cc1)c1ccccc1S2 | 100 | 97 | – | – |
| O=C(NCc1ccc(Cl)cc1Cl)c1ccc2c(c1)N=C(c1ccccc1F)c1ccccc1S2 [drawing 568] | 50.1 | 85 | – | – |

| SMILES | IC50 [1] [nM] | Emax [2] [%] | IC50 (pIC50, Appendix A) [nM] | % Inhibition [2] [%] |
| --- | --- | --- | --- | --- |
| O=C(NCc1cccnc1)c1ccc2c(c1)N=C(c1ccc(Br)cc1)c1ccccc1S2 [drawing 1007] | 25.1 | 106 | – | – |
| CC(C)CNC(=O)c1ccc2c(c1)N=C(c1ccc(Cl)s1)c1ccc(Cl)cc1S2 [drawing 983] | 25.1 | 110 | – | – |
| O=C(NCc1ccncc1)c1ccc2c(c1)N=C(N1CCCCC1)c1ccccc1S2 | 501 | 81 | – | – |
| O=C(NCc1ccccc1Cl)c1ccc2c(c1)N=C(N1CCCCC1)c1ccccc1S2 [drawing 1013] | 25.1 | 117 | – | – |
| O=C(NNCC(F)(F)F)c1ccc2c(c1)N=C(c1cccc(Cl)c1)c1ccccc1S2 [drawing 678] | 63.1 | 99 | – | – |
| CCCC1=Nc2cc(C(=O)NCCCN3CCOCC3)ccc2Sc2ccccc21 | 316 | 98 | – | – |
| CCCCN(CCCC)CCNC(=O)c1ccc2c(c1)N=C(CCC)c1ccccc1S2 | 398 | 109 | – | – |
| O=C(NCCc1cccc(Cl)c1)c1ccc2c(c1)N=C(c1cccc(Cl)c1)c1ccccc1S2 [drawing 779] | 10 | 107 | – | – |
| CCCCC1=Nc2cc(C(=O)NN3CCCCC3)ccc2Sc2ccccc21 | 316 | 82 | – | – |
| CCCC1=Nc2cc(C(=O)NCc3ccc(F)cc3)ccc2Sc2ccccc21 [drawing 787] | 10 | 107 | – | – |
| CC(C)CNC(=O)c1ccc2c(c1)N=C(c1ccsc1)c1ccccc1S2 [drawing 581] | 3.16 | 90 | – | – |
| CC(C)NC(=O)c1ccc2c(c1)N=C(c1cccc(F)c1)c1ccccc1S2 [drawing 1155] | 39.8 | 104 | – | – |
| Cc1cccnc1C1=Nc2cc(C(=O)NC3CCCC3)ccc2Sc2ccccc21 | 1000 | 57 | – | – |
| O=C(NC1CCCC1)c1ccc2c(c1)N=C(c1ccccc1Cl)c1ccccc1S2 | 794 | 59 | – | – |
| O=C(NCc1cccnc1)c1ccc2c(c1)N=C(c1cccc(Br)c1)c1ccccc1S2 [drawing 895] | 15.8 | 105 | – | – |
| CONC(=O)c1ccc2c(c1)N=C(c1ccc(Br)cc1)c1ccccc1S2 | 794 | 68 | – | – |
| Cc1cnc(-c2ccc3c(c2)N=C(c2ccc(Cl)cc2)c2ccccc2S3)[nH]1 [drawing 872] | 200 | 88 | – | – |
| COCCNC(=O)c1ccc2c(c1)N=C(c1ccccn1)c1ccccc1S2 | 398 | 71 | – | – |
| O=C(NCc1ccco1)c1ccc2c(c1)N=C(c1cccc(Cl)c1)c1ccccc1S2 [drawing 583] | 3.16 | 100 | – | – |
| CCCC1=Nc2cc(C(=O)NC(C)CCN(C)C(=O)OCC)ccc2Sc2ccc(C)cc21 (centres unmarked) | 1000 | 79 | – | – |
| CCCCNC(=O)c1ccc2c(c1)N=C(c1ccc(Cl)cc1)c1ccccc1S2(=O)=O | 63.1 | 106 | – | – |
| O=C(NCc1ccccc1Cl)c1ccc2c(c1)N=C(C1CCCCC1)c1ccccc1S2 [drawing 1059] | 31.6 | 91 | – | – |
| CCCCNC(=O)c1ccc2c(c1)N=C(c1ccc(Cl)s1)c1ccc(F)cc1S2 [drawing 1010] | 501 | 101 | – | – |
| CCCC1=Nc2cc(C(=O)NC3CCCC(C)C3C)ccc2Sc2ccccc21 (centres unmarked) [drawing 1115] | – | 101 | 39.8 | – |
| Cc1ccsc1C1=Nc2cc(C(=O)NCc3ccncc3)ccc2Sc2ccccc21 | 158 | 92 | – | – |

| SMILES | IC50 [1] [nM] | Emax [2] [%] | IC50 (pIC50, Appendix A) [nM] | % Inhibition [2] [%] |
| --- | --- | --- | --- | --- |
| CCCC1=Nc2cc(C(=O)NCC3C=CC4=C(C3)OCO4)ccc2Sc2ccccc21 (centres unmarked) | 398 | 91 | – | – |
| O=C(NC1CCC(F)(F)CC1)c1ccc2c(c1)N=C(c1ccccn1)c1ccccc1S2 [drawing 564] | 50.1 | 79 | – | – |
| O=C(NCc1ccncc1)c1ccc2c(c1)N=C(NCc1ccc(Cl)cc1)c1ccccc1S2 | 794 | 56 | – | – |
| O=C(NC1CCCCC1)c1ccc2c(c1)N=C(c1ccccn1)c1ccccc1S2 [drawing 598] | – | 112 | 50.1 | – |
| CCCC1=Nc2cc(C(=O)NCCc3ccc(SC)cc3)ccc2Sc2ccccc21 | 251 | 103 | – | – |
| CCCCN(C)C(=O)c1ccc2c(c1)N=C(c1ccccn1)c1ccccc1S2 | 1000 | 57 | – | – |
| COc1ccc(C2=Nc3cc(C(=O)NCC(C)C)ccc3Sc3ccccc32)cc1 [drawing 835] | 12.6 | 118 | – | – |
| O=C(NCc1ccc(F)cc1)c1ccc2c(c1)N=C(C1CCCCC1)c1ccccc1S2(=O)=O [drawing 917] | 15.8 | 120 | – | – |
| O=C(NCc1ccco1)c1ccc2c(c1)N=C(c1ccc(F)cc1)c1ccccc1S2 [drawing 689] | 6.31 | 104 | – | – |
| O=C(NCCC(F)(F)F)c1ccc2c(c1)N=C(c1ccc(Cl)s1)c1ccccc1S2 [drawing 663] | 6.31 | 95 | – | – |
| Cc1csc(CNC(=O)c2ccc3c(c2)N=C(c2ccc(F)cc2)c2ccccc2S3)c1 [drawing 732] | 79.4 | 80 | – | – |
| CC(C)CCNC(=O)c1ccc2c(c1)N=C(c1ccccc1Cl)c1ccccc1S2 [drawing 1053] | 31.6 | 105 | – | – |
| Cc1cccc(C2=Nc3cc(C(=O)NCC(C)C)ccc3Sc3ccccc32)n1 [drawing 809] | 10 | 82 | – | – |
| CCCNC(=O)c1ccc2c(c1)N=C(c1ncccc1C)c1ccccc1S2 | 501 | 63 | – | – |
| N#Cc1ccc(C2=Nc3cc(C(=O)NNCc4ccccc4)ccc3Sc3ccccc32)cc1 [drawing 1174] | – | 58 | – | – |
| O=C(NCc1cccnc1)c1ccc2c(c1)N=C(NCc1ccc(Cl)cc1)c1ccccc1S2 | 501 | 76 | – | – |
| CCCNC(=O)c1ccc2c(c1)N=C(c1ccc(Cl)cc1)c1ccccc1S2 [drawing 799] | 10 | 103 | – | – |
| CCOC(=O)c1ccc(C2=Nc3cc(C(=O)NCc4ccccn4)ccc3Sc3ccccc32)cc1 [drawing 874] | 200 | 100 | – | – |
| O=C(NCCC(F)(F)F)c1ccc2c(c1)N=C(c1ccc(Cl)cc1)c1ccccc1S2 [drawing 705] | – | 91 | 7.94 | – |
| O=C(NN1CCCCC1)c1ccc2c(c1)N=C(c1ccc(F)c(Cl)c1)c1ccccc1S2 [drawing 817] | 12.6 | 108 | – | – |
| CCCNC(=O)c1ccc2c(c1)N=C(CCC)c1ccccc1S2 | 31.6 | 95 | – | – |
| O=C(NCCCC(F)(F)F)c1ccc2c(c1)N=C(c1ccccn1)c1ccccc1S2 [drawing 871] | 15.8 | 117 | – | – |
| Cc1cccnc1C1=Nc2cc(C(=O)NCCc3cccnc3)ccc2Sc2ccccc21 | > 5010 | 28 | – | – |
